Experimental data from US20150105252A1, “SUBSTITUTED PYRAZOLES AS HERBICIDES” (E I DU PONT DE NEMOURS AND COMPANY, priority 2013, published 2015).

Tests used:
wheat [1] = experiment: Test C postemergence; format: in vivo, Triticum aestivum
Procedure, shortened: (§1)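 Scores of 0 (no effect) to 100 (complete control) were assigned by eye after 13–15 days, comparing treated pots with controls. Soil-applied (preemergence) treatments went onto seeds in loam and sand; foliar (postemergence) treatments onto 1- to 4-leaf plants in peat medium.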

velvetleaf = experiment: Test A postemergence; format: in vivo, Abutilon theophrasti
Procedure, shortened: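 Visual injury ratings, 0 = no effect to 100 = complete control, taken about 10 days after treatment against untreated controls. Test chemicals, in a non-phytotoxic surfactant-containing solvent, were sprayed onto soil preemergence or onto one- to two-leaf plants (2–10 cm) postemergence, in loam–sand soil under greenhouse conditions.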

corn = experiment: Test C preemergence; format: in vivo, Zea mays; details: for Corn plant response rating: preemergence
Procedure, shortened: as §1

lambsquarters = experiment: Test C postemergence; format: in vivo, Chenopodium album
Procedure, shortened: as §1

galium = experiment: Test C preemergence; format: in vivo, Galium aparine; details: for Galium plant response rating: preemergence
Procedure, shortened: as §1

soybean = experiment: Test C preemergence; format: in vivo, Glycine max; details: for Soybean plant response rating: preemergence
Procedure, shortened: as §1

wheat [2] = experiment: Test C preemergence; format: in vivo, Triticum aestivum; details: for Wheat plant response rating: preemergence
Procedure, shortened: as §1

ragweed = experiment: Test C preemergence; format: in vivo, Ambrosia elation; details: for Ragweed plant response rating: preemergence
Procedure, shortened: as §1

johnsongrass = experiment: Test C postemergence; format: in vivo, Sorghum halepense
Procedure, shortened: as §1

blackgrass = experiment: Test C preemergence; format: in vivo, Alopecurus myosuroides; details: for Blackgrass plant response rating: preemergence
Procedure, shortened: as §1

oilseed rape = experiment: Test C preemergence; format: in vivo, Brassica napus; details: for Oilseed Rape plant response rating: preemergence
Procedure, shortened: as §1

chickweed = experiment: Test C postemergence; format: in vivo, Stellaria media
Procedure, shortened: as §1

foxtail, giant = experiment: Test C postemergence; format: in vivo, Setaria faberii
Procedure, shortened: as §1

waterhemp = experiment: Test C preemergence; format: in vivo, Amaranthus rudis; details: for Waterhemp plant response rating: preemergence
Procedure, shortened: as §1

pigweed = experiment: Test C preemergence; format: in vivo, Amaranthus retroflexus; details: for Pigweed plant response rating: preemergence
Procedure, shortened: as §1

[3] = Postemergence, 31 g ai/ha, visually evaluated after 13 to 15 days
[4] = postemergence, 62 g ai/ha, scale 0 to 100
[5] = postemergence, 250 g ai/ha, scale 0 to 100 (0 no effect, 100 complete control)
[6] = postemergence, 125 g ai/ha, scale 0 to 100, 0 no effect, 100 complete control
[7] = 31 g ai/ha, visual rating, scale 0 to 100 (0 no effect, 100 complete control), 13 to 15 days
[8] = 62 g ai/ha, scale 0 to 100 (0 no effect, 100 complete control), 13 to 15 days
[9] = 125 g ai/ha, scale 0 to 100, 0 is no effect, 100 is complete control

CCc1cc(C(=O)NCC(F)(F)F)nn1Cc1nc(C(F)(F)F)nn1C [Compound 107]
Plant response rating (scale of 0 to 100 where 0 is no effect and 100 is complete control), Wheat (wheat [1]; [3]): 0 | Wheat plant response rating (wheat [1]; [4]): 5 | Plant response rating, Wheat (wheat [1]; [5]): 30 | Plant response rating, Wheat (wheat [1]; [6]): 20 | Velvetleaf plant response rating (velvetleaf; Postemergence, 500 g ai/ha, visual rating after approx. 10 days, 0 to 100 scale (0 no effect, 100 complete control)): 100 | Velvetleaf plant response rating (velvetleaf; postemergence, 125 g ai/ha, about 10 days, visual rating on 0 to 100 scale (0 no effect, 100 complete control)): 80 | Plant response rating (scale of 0 to 100), Corn (corn; Preemergence, 250 g ai/ha): 95 | Corn plant response rating (corn; [7]): 30 | Corn plant response rating (corn; [8]): 45 | Corn plant response rating (corn; [9]): 90 | Plant response rating (scale of 0 to 100 where 0 is no effect and 100 is complete control), Lambsquarters (lambsquarters; [3]): 40 | Lambsquarters plant response rating (lambsquarters; [4]): 40 | Plant response rating, Lambsquarters (lambsquarters; [5]): 90 | Plant response rating, Lambsquarters (lambsquarters; [6]): 70 | Plant response rating (scale of 0 to 100), Galium (galium; Preemergence, 250 g ai/ha): 100 | Galium plant response rating (galium; [7]): 75 | Galium plant response rating (galium; [8]): 90 | Galium plant response rating (galium; [9]): 95 | Plant response rating (scale of 0 to 100), Soybean (soybean; Preemergence, 250 g ai/ha): 95 | Soybean plant response rating (soybean; [7]): 15 | Soybean plant response rating (soybean; [8]): 95 | Soybean plant response rating (soybean; [9]): 95 | Plant response rating (scale of 0 to 100), Wheat (wheat [2]; Preemergence, 250 g ai/ha): 50 | Wheat plant response rating (wheat [2]; [7]): 5 | Wheat plant response rating (wheat [2]; [8]): 15 | Wheat plant response rating (wheat [2]; [9]): 50 | Plant response rating (scale of 0 to 100), Ragweed (ragweed; Preemergence, 250 g ai/ha): 100 | Ragweed plant response rating (ragweed; [7]): 50 | Ragweed plant response rating (ragweed; [8]): 98 | Ragweed plant response rating (ragweed; [9]): 100 | Plant response rating (scale of 0 to 100 where 0 is no effect and 100 is complete control), Johnsongrass (johnsongrass; [3]): 0 | Johnsongrass plant response rating (johnsongrass; [4]): 0 | Plant response rating, Johnsongrass (johnsongrass; [5]): 70 | Plant response rating, Johnsongrass (johnsongrass; [6]): 5 | Plant response rating (scale of 0 to 100), Blackgrass (blackgrass; Preemergence, 250 g ai/ha): 100 | Blackgrass plant response rating (blackgrass; [7]): 95 | Blackgrass plant response rating (blackgrass; [8]): 100 | Blackgrass plant response rating (blackgrass; [9]): 100 | Plant response rating (scale of 0 to 100), Oilseed Rape (oilseed rape; Preemergence, 250 g ai/ha): 100 | Oilseed Rape plant response rating (oilseed rape; [7]): 98 | Oilseed Rape plant response rating (oilseed rape; [8]): 100 | Oilseed Rape plant response rating (oilseed rape; [9]): 100 | Plant response rating (scale of 0 to 100 where 0 is no effect and 100 is complete control), Chickweed (chickweed; [3]): 100 | Chickweed plant response rating (chickweed; [4]): 100 | Plant response rating, Chickweed (chickweed; [5]): 100 | Plant response rating, Chickweed (chickweed; [6]): 100 | Plant response rating (scale of 0 to 100 where 0 is no effect and 100 is complete control), Foxtail, Giant (foxtail, giant; [3]): 10 | Foxtail, Giant plant response rating (foxtail, giant; [4]): 15 | Plant response rating, Foxtail, Giant (foxtail, giant; [5]): 60 | Plant response rating, Foxtail, Giant (foxtail, giant; [6]): 55 | Plant response rating (scale of 0 to 100), Waterhemp (waterhemp; Preemergence, 250 g ai/ha): 100 | Waterhemp plant response rating (waterhemp; [7]): 100 | Waterhemp plant response rating (waterhemp; [8]): 100 | Waterhemp plant response rating (waterhemp; [9]): 100 | Plant response rating (scale of 0 to 100), Pigweed (pigweed; Preemergence, 250 g ai/ha): 100 | Pigweed plant response rating (pigweed; [7]): 100 | Pigweed plant response rating (pigweed; [8]): 100 | Pigweed plant response rating (pigweed; [9]): 100
